Reference: publication PMC7044277 (Nature Communications, 2020)
Where “and” joins values, the source holds several entries; their conditions need not be identical. Equal entries are not always repeated.

Key:
Type in all cases: cell-based
320 non-olfactory GPCRs [1] = target: T1, 320 non-olfactory GPCRs (Homo sapiens, UniProt P29275)
T1 construct: expressed in transfected cells; host or cells: HTLA cells

320 non-olfactory GPCRs [2] = target: T2, 320 non-olfactory GPCRs (Homo sapiens, UniProt Q16602)
T2 construct: expressed in transfected cells; host or cells: HTLA cells
T2 sequence (Q16602 23-461): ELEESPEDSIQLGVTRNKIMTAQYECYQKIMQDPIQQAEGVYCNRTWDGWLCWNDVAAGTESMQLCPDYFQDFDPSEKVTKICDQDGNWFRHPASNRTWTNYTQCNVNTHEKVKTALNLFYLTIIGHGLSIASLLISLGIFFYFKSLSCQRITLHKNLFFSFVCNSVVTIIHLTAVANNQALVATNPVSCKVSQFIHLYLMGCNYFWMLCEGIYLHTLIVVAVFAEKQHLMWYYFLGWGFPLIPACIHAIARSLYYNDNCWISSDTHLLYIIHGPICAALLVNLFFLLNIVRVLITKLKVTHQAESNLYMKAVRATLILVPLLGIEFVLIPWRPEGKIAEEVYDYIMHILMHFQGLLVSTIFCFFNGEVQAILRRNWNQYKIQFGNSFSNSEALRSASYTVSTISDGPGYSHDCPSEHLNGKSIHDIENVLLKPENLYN

320 non-olfactory GPCRs [3] = target: 320 non-olfactory GPCRs (Homo sapiens, UniProt P07550)
Sequence of 320 non-olfactory GPCRs (Homo sapiens, UniProt P07550) (P07550 whole entry): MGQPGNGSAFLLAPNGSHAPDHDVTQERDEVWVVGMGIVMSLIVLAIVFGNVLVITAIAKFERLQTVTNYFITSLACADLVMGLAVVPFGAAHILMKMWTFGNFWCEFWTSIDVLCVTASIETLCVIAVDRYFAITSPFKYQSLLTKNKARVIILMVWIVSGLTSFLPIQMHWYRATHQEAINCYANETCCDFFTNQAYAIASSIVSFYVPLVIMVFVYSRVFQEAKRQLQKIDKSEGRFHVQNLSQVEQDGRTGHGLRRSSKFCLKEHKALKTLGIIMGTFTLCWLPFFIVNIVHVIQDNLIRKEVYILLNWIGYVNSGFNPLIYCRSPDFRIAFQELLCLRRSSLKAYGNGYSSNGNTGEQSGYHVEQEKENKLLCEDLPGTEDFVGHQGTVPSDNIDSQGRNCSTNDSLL

320 non-olfactory GPCRs [4] = target: T3, 320 non-olfactory GPCRs (Homo sapiens, UniProt P51684)
T3 construct: expressed in transfected cells; host or cells: HTLA cells
T3 sequence (P51684 whole entry): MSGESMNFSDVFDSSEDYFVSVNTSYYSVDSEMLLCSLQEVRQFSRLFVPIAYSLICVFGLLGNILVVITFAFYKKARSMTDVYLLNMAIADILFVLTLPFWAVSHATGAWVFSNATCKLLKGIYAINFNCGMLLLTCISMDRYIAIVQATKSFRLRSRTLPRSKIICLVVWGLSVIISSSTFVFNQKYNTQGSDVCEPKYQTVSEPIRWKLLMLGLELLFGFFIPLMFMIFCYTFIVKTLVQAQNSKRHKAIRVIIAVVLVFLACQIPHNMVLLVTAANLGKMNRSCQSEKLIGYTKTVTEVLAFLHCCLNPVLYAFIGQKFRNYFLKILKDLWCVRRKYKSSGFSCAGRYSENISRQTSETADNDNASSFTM
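Note: compound tested at 1 µM final concentration.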

T1 sequence (P29275 whole entry): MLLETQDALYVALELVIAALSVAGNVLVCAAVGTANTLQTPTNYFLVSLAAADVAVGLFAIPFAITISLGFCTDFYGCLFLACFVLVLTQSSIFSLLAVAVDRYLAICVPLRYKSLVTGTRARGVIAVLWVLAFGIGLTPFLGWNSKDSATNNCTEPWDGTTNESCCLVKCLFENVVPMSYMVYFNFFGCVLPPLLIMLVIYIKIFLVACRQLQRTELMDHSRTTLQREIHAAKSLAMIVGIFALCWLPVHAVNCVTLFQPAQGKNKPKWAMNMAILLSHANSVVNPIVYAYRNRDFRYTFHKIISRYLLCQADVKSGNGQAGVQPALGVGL

CCOc1cccc2cc(C(C)NCC3(O)CCCCC3)oc12 (stereo not shown) [O4LE6]
Fold of Basal (320 non-olfactory GPCRs [1]): 1.3919 and 1.763 and 1.526 and 2.198
Fold of Basal (320 non-olfactory GPCRs [2]): 0.7801 and 0.8303 and 0.6573 and 0.7619
Fold of Basal (320 non-olfactory GPCRs [3]): 0.7944 and 1.208 and 1.018 and 0.6397
Fold of Basal (320 non-olfactory GPCRs [4]): 0.9905 and 0.8775 and 0.7328 and 0.5067
